Patent US20120137390A1, “MATERIALS AND METHODS FOR REGENERATION AND TRANSFORMATION OF TREES” (ArborGen Inc., priority 2009, published 2012)

How the values were obtained:
Type in all cases: cell-based
[1] = test system: E. amplifolia clone EA5490; assay: Regeneration screening matrix, clone EA5490; conditions: meta-topolin at least 2.5 μM
Procedure: (§1) To test the ability of various cytokinins to stimulate adventitious regeneration, the effects of 4-CPPU, Zeatin, TDZ, meta-topolin, and adenine sulfate were compared. The levels of cytokinins varied from 0.025 to 10 μM. The base medium for this matrix is named H2—2.0 (or H2—2 for short), which is the primary MS-based regeneration medium (Table 2). The medium has been effective to induce shoot regeneration from many Eucalyptus species including E. grandis, E. dunnii, E. camaldulensis, E. urophylla, E. occidentalis, and E. saligna. The antibiotic timentin was added at 250 mg/L final concentration. Shoot regeneration was measured as the frequency of explants produced shoots. Explants were cultured on the regeneration medium for about 8-10 weeks before collection of final regeneration data.
(§2) Combinations of meta-mopolin, 4-CPPU, and TDZ that gave the best regeneration across multiple experiments were combined with two standard regeneration media that have worked with other clones in the past to become a regeneration screening matrix for new clonal material.

[2] = test system: E. urophylla X grandis S-519; assay: Regeneration screening matrix, clone S-519; conditions: meta-topolin at least 2.5 μM, clone S519
Procedure: as §1, §2

[3] = test system: E. grandis clone 6084 explants; assay: Adventitious shoot regeneration from explants on regeneration medium, clone 6084
Procedure: (§3) Plant Materials and culture conditions. All elite clones were maintained as shoot clumps in Eucalyptus maintenance (EM) medium (Table 1) in magenta boxes or large disposable vessels and subcultured every 4-6 weeks. Shoot clumps were divided as needed and maintained as stock culture. Unless noted otherwise, all cultures were grown under shaded, cool fluorescent light with a light intensity of 30-40 gE/m^2/s with a photoperiod of 16 hours, and a temperature of 21° C.
(§4) Although leaves, petioles, internodes, floral tissues, and embryogenic tissues can be used for transformation and subsequent regeneration, leaf explants were selected because leaves are abundant. For transformation, explants of E. grandis clones 6075 and 6084 were incubated with Agrobacterium and were placed on co-culture medium, which was the same as the regeneration medium (Table 2) except with the following modifications: the addition of Agrobacterium inducer acetosyringone and the addition of plant growth regulators that are enriched in auxin. MS medium (Murashige and Skoog 1962) was used in the present co-culture medium; however, other salt media, such as Woody Plant Medium (WPM) salts (Loyd and McCown, 1980) or Lepoivre medium, may be used. Also, other Agrobacterium inducers may be used. Plant explants were co-cultured for four days under low light conditions or in the dark on the co-culture medium.
as §1

[4] = test system: E. grandis clone 6075 explants; assay: Adventitious shoot regeneration from explants on regeneration medium, clone 6075
Procedure: as §3, §4, §1

[5] = lower concentrations of 4-CPPU (0.025, 0.05 μM)

Oc1cccc(CNc2ncnc3nc[nH]c23)c1 [meta-topolin, N^6-(meta-hydroxybenzyl)adenine]
adventitious shoot regeneration (in words) [1]: significantly higher adventitious shoot regeneration
adventitious shoot regeneration (in words) [2]: significantly higher adventitious shoot regeneration
adventitious shoot formation (in words) ([3]; meta-topolin at least 2.5 μM): significant increase in adventitious shoot formation
adventitious shoot formation (in words) ([4]; meta-topolin at least 2.5 μM): significant increase in adventitious shoot formation

O=C(Nc1ccccc1)Nc1cnns1 [TDZ, 1-phenyl-3-(1,2,3-thiadiazol-5-yl)urea]
promotion of shoot regeneration (in words) ([3]; TDZ alone at 0.1 μM): not effective in promotion of shoot regeneration
promotion of shoot regeneration (in words) ([4]; TDZ alone at 0.1 μM): not effective in promotion of shoot regeneration

O=C(Nc1ccccc1)Nc1ccnc(Cl)c1 [4-CPPU, N-(2-Chloro-4-pyridyl)-N′-phenylurea]
adventitious shoot formation (in words) ([3]; 4-CPPU at 0.1 μM): effective
adventitious shoot formation (in words) [3, 5]: not effective in induce adventitious shoot formation
adventitious shoot formation (in words) ([4]; 4-CPPU at 0.1 μM): effective
adventitious shoot formation (in words) [4, 5]: not effective in induce adventitious shoot formation
